Assay results published in patent US7608642B2, “Wound and skin care compositions” (Kimberly-Clark Worldwide, Inc., priority 2002, dated 2009).
Where “and” joins values, the source holds several entries; their conditions need not be identical. Equal values may be shown once. Entries after “also recorded” stand apart in the source; their conditions may differ. Read-outs that look alike come from different tables or passages of the source.

Tests used:
[1] = tested on: human skin fibroblast cell line (normal human dermal fibroblasts, neonatal); conditions: for Cell proliferating activity on human skin fibroblasts (in words): 1×10^−4 M to 1×10^−6 M vs control; for Mean optical density (OD) at 490 nm, cell proliferation / Median optical density (OD) at 490 nm, cell proliferation: 28 hours, serum-free DMEM, n=5
Procedure: Statistical analyses of data were performed using one-way ANOVA. P<0.05 is considered significant, while P<0.0001 is considered extremely significant and P<0.001 is considered as very very significant.

[2] = tested on: fibronectin production in the human skin fibroblast cell line; assay: Fibronectin production in human skin fibroblasts (Takara EIA kit MK115, absorbance 450 nm); format: cell-based; conditions: for Stimulation of fibronectin production (in words): 1×10^−4 M to 1×10^−6 M vs control; for Mean optical density (OD) at 450 nm, fibronectin production / Median optical density (OD) at 450 nm, fibronectin production: 48 hours, n=2
Procedure: The cells were first grown in a 96-well assay system using Dulbecco's Modified Eagle's Medium (DMEM) with 10% fetal bovine serum (FBS) both purchased from Sigma Chemical Co, St. Louis, Mo. Serum-free DMEM was used as a control. […] The fibronectin assay was performed using the recommended 100 μl of the supernatant from each well of the 96-well plate. Standard buffer and stop solutions were freshly prepared before running the assay. A pre-antibody-coated 96 well plate (provided with the kit) was used to transfer the test samples and control. The plate was mixed, sealed and incubated for 1 hour at 37° C. All the wells were washed after removing sample solutions, 3 times (300 μl) with washing buffer. 100 ul of antibody-POD conjugate solution was added into the wells. Plate was mixed, sealed and incubated for one hour at 37° C. Solutions were removed and the wells were washed 3 times with washing buffer. All the wells were completely emptied at the end of washing from any liquid. 100 μl of substrate solution (hydrogen peroxide and tetramethylbenzidine in a buffered solution) was added to each well and the plate was incubated at room temperature for 15 minutes. 100 μl of stop solution (freshly prepared 1N H2SO4) was added to each well in the same order as substrate. The plate was gently mixed and absorbance was read at 450 nm.

[3] = tested on: healthy female volunteers; assay: Dansyl chloride cell renewal study (stratum corneum renewal time); format: in vivo, human
Description: The stratum corneum renewal time is the time taken for the whole thickness of the stratum corneum to be exfoliated and replaced by new cells from the dividing epidermis. This renewal time is a fundamental indicator of skin health. […] See Jansen L H, Hojyo-Tomoko M T, Kligman A M., Improved fluorescence staining technique for estimating turnover of the human stratum corneum, Br J Dermatol., 90, 9-12, 1974; Ridge B D, Batt M D, Palmer H E, Jarrett A, The dansyl chloride technique for stratum corneum renewal as an indicator of changes in epidermal mitotic activity following topical treatment., Br J Dermatol., 118, 167-74, 1988; Grove G L, Kligman A M, Age-associated changes in human epidermal cell renewal., J Geron., 38, 137-142, 1983. The time required for the dye to disappear is therefore an indication of the turnover time of the stratum corneum. Therefore, any differences in the time required for the dye to disappear from treated and non-treated sites can be considered to be an expression of that product's ability to enhance epidermal renewal.
A dansyl chloride cell renewal study was conducted in healthy female volunteers ranging from 43-64 years of age. The study consisted of a two-week treatment period during which time the products were applied topically twice daily, including on weekend days, to the test sites. The area of application was designated, approximately 5 cm×10 cm on the upper inner arm. The other arm served as a control with no product application. […] Eight females received jasmonic acid and seven females received gibberellic acid.
The time required for a marker dye to disappear was used as the measure of cell renewal rate.

[4] = tested on: collagen production in the human skin fibroblast cell line; assay: Collagen production in human skin fibroblasts (Takara EIA kit MK101, absorbance 450 nm); format: cell-based; conditions: for Stimulation of collagen production (in words): 1×10^−4 M to 1×10^−6 M vs control; for Mean optical density (OD) at 450 nm, collagen production / Median optical density (OD) at 450 nm, collagen production: 48 hours, n=2
Procedure: The cells were first grown in a 96-well assay system using Dulbecco's Modified Eagle's Medium (DMEM) with 10% fetal bovine serum (FBS) both purchased from Sigma Chemical Co, St. Louis, Mo. Serum-free DMEM was used as a control.
The assay was done by using the recommended 20 ul of the supernatant from each well of the 96-well plate. Standard buffer and stop solutions were freshly prepared before running the assay. 100 ul of antibody-POD conjugate solution (supplied with the kit) was added into the wells using pre antibody coated 96 well plate (supplied with the kit). 20 ul of standard and test solutions (from the other 96-well plate containing fibroblasts) were added to appropriate wells. Plate was mixed gently, sealed and incubated for three hrs. at 37° C.
After incubation each well was washed carefully four times with PBS buffer (400 ul). All the wells were completely emptied at the end of washing from any liquid.
100 ul of substrate solution (hydrogen peroxide and tetramethylbenzidine in a buffer solution, supplied with the kit) was added to each well and the plate was incubated for 15 minutes. At this point 100 ul of stop solution (freshly prepared 1N H2SO4) was added to each well in the same order as substrate. The plate was gently mixed and absorbance was read at 450 nm.

Swiss Albino mice = assay: Wound healing, full thickness skin wounds (3 mm biopsy punch) in mice; format: in vivo, mouse
Procedure: Twenty, 12-week old Swiss Albino mice were anesthetized with a ketamine/acepromazine cocktail and subjected to four full thickness skin wounds on the dorsolateral surface. […] Jasmonic acid (100 mg) was dissolved in 2 ml ethanol. 200 μl of the resulting solution was then added to 4.8 ml of WFI. Four wounds were made on either side of the spinal column using a 3 mm biopsy punch. To make the wounds, the skin was first tented and the punch was driven through the tented skin to generate both wounds with a single stroke. The upper left quadrant wound site of the animal was assigned to receive the control solution (WFI). […] The wound sites were dosed 5 times (twice on Day 0, Day 1, and once on Day 2). All wounds were treated with 5 μl of test or control solutions. Wounds were allowed to absorb the solutions for 5 minutes before returning the animals to their cages for recovery. All the animals were housed singly. The in-life phase for the animals is 5 days. Each day the wounds on the mice were traced onto glass slides and measured using calipers accurate to the nearest 0.1 mm. Photographs of the wounds were also taken daily for the duration of the study to measure wound size. Means and the standard deviations of the wound diameters for each day were calculated for the healing profile. The effects of the test substances on wound healing were compared to the effects of the control (WFI).

[5] = tested on: human skin keratinocyte cell line (normal human epidermal keratinocytes, neonatal); assay: Proliferation of human skin keratinocytes (Cell Titer 96, absorbance 490 nm); format: cell-based; conditions: for Cell proliferating activity on human keratinocytes (in words): 1×10^−4 M to 1×10^−6 M vs control; for Mean optical density (OD) at 490 nm, cell proliferation / Median optical density (OD) at 490 nm, cell proliferation: 48 hours, KBM, n=5
Procedure: In addition, 100 μl of vehicle KBM was added to 5 wells as control. […] The spectrophotometric absorbance of each well was read at 490 nm.

Compound	Cell proliferating activity on human skin fibroblasts (in words) [1]	Mean optical density (OD) at 490 nm, cell proliferation ([1]; 1×10^−4 M)	Mean optical density (OD) at 490 nm, cell proliferation ([1]; 1×10^−5 M)	Median optical density (OD) at 490 nm, cell proliferation ([1]; 1×10^−5 M)	Mean optical density (OD) at 490 nm, cell proliferation ([1]; 1×10^−6 M)	Median optical density (OD) at 490 nm, cell proliferation ([1]; 1×10^−6 M)	Stimulation of fibronectin production (in words) [2]	Mean optical density (OD) at 450 nm, fibronectin production ([2]; 1×10^−4 M)	Median optical density (OD) at 450 nm, fibronectin production ([2]; 1×10^−4 M)	Mean optical density (OD) at 450 nm, fibronectin production ([2]; 1×10^−5 M)	Median optical density (OD) at 450 nm, fibronectin production ([2]; 1×10^−5 M)	Mean optical density (OD) at 450 nm, fibronectin production ([2]; 1×10^−6 M)	Median optical density (OD) at 450 nm, fibronectin production ([2]; 1×10^−6 M)	Stimulation of collagen production (in words) [4]	Mean optical density (OD) at 450 nm, collagen production ([4]; 1×10^−4 M)	Median optical density (OD) at 450 nm, collagen production ([4]; 1×10^−4 M)	Mean optical density (OD) at 450 nm, collagen production ([4]; 1×10^−5 M)	Median optical density (OD) at 450 nm, collagen production ([4]; 1×10^−5 M)	Mean optical density (OD) at 450 nm, collagen production ([4]; 1×10^−6 M)	Median optical density (OD) at 450 nm, collagen production ([4]; 1×10^−6 M)	also measured
CC(=O)Oc1ccccc1C(=O)O [acetylsalicylic acid]	strong cell proliferating activity at all concentrations; also recorded: all concentrations of acetylsalicylic acid had a significant effect on cell growth	0.5406	0.6276	0.6270	0.6590	0.6590	–	–	–	–	–	–	–	–	–	–	–	–	–	–	Median optical density (OD) at 490 nm, cell proliferation ([1]; 1×10^−4 M): 0.5290
CC/C=C\C[C@H]1C(=O)CC[C@@H]1CC(=O)O [jasmonic acid]	–	–	–	–	–	–	effective for stimulating fibronectin production in human fibroblasts; also recorded: all compounds stimulated fibronectin production	0.2060	0.2060	0.2025	0.2025	0.1955	0.1955	strongly stimulated collagen production at higher concentrations; also recorded: Higher concentrations of jasmonic acid and medium concentrations of zeatin also stimulated collagen production	0.8040	0.8040	0.7895	0.7895	0.7475	0.7475	Time for cell renewal, treated skin (RENEWAL) ([3]; 0.25% in hyaluronic acid (0.5% aqueous solution), topical twice daily for two weeks, upper inner arm, individual patients, listed as JA): 12 Days (2×) and 16 Days and 15 Days (2×) and 17 Days and 14 Days and 11 Days; Skin irritation or redness ([3]; in vivo): no visible sign of any skin irritation or redness; Time control-treated wounds required to close to the same extent achieved in jasmonic acid-treated wounds on day 1 (Swiss Albino mice; topical 0.2% solution vs control (WFI)): over 2.5 days; Effect on wound closure / wound healing (in words) (Swiss Albino mice; topical 5 μl of 0.2% solution, 5 doses Day 0-2, vs control (WFI)): significantly accelerated the rate of wound healing; also recorded: experienced slower wound closure than mice receiving a 0.2% solution of jasmonic acid; Cell proliferating activity on human keratinocytes (in words) [5]: strong cell proliferating activity especially at the lower concentrations; also recorded: all concentrations of jasmonic acid had an effect on cell growth; Mean optical density (OD) at 490 nm, cell proliferation ([5]; 1×10^−4 M): 0.5732; Median optical density (OD) at 490 nm, cell proliferation ([5]; 1×10^−4 M): 0.5860; Mean optical density (OD) at 490 nm, cell proliferation ([5]; 1×10^−5 M): 0.7628; Median optical density (OD) at 490 nm, cell proliferation ([5]; 1×10^−5 M): 0.7750; Mean optical density (OD) at 490 nm, cell proliferation ([5]; 1×10^−6 M): 0.7734; Median optical density (OD) at 490 nm, cell proliferation ([5]; 1×10^−6 M): 0.7970
zeatin	–	–	–	–	–	–	effective for stimulating fibronectin production in human fibroblasts; also recorded: all compounds stimulated fibronectin production	0.2075	0.2075	0.2110	0.2110	0.1995	0.1995	strongly stimulated collagen production at medium concentrations; also recorded: medium concentrations of zeatin also stimulated collagen production	0.7665	0.7665	0.8115	0.8115	0.7715	0.7715	Cell proliferating activity on human keratinocytes (in words) ([5]; listed as t-zeatin): strong cell proliferating activity at all concentrations; also recorded: all concentrations of t-zeatin had a significant effect on cell growth; Mean optical density (OD) at 490 nm, cell proliferation ([5]; 1×10^−4 M): 0.7726; Median optical density (OD) at 490 nm, cell proliferation ([5]; 1×10^−4 M): 0.7880; Mean optical density (OD) at 490 nm, cell proliferation ([5]; 1×10^−5 M): 0.8716; Median optical density (OD) at 490 nm, cell proliferation ([5]; 1×10^−5 M): 0.8790; Mean optical density (OD) at 490 nm, cell proliferation ([5]; 1×10^−6 M): 0.9770; Median optical density (OD) at 490 nm, cell proliferation ([5]; 1×10^−6 M): 0.9830
O=C(O)c1ccccc1O [salicylic acid]	strong cell proliferating activity especially at the lower concentrations; also recorded: all concentrations of salicylic acid had a significant effect on cell growth	0.3916	0.5004	0.5110	0.4668	0.4690	–	–	–	–	–	–	–	–	–	–	–	–	–	–	–
